Common to all, as to format: biochemical
One assay concerns the target LRRK2 (Homo sapiens, UniProt Q5S007). Put plainly: LRRK2 enzyme inhibition, ADP-Glo kinase assay. The settings on record: ATP 10 μM. Also on record: purchased Invitrogen PR8604B. In short, it runs like this: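 ADP-Glo luminescent read-out of ADP formed by purified human LRRK2 enzyme (25 ng), 10 μM ATP, 0.2 μg substrate, 25° C for 2 h, Tris-HCl pH 7.4 buffer with MgCl2, BSA, DTT. Inhibition versus untreated solvent control over twelve final concentrations (50 μM downward) gives IC50.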
For orientation: In ADP-Glo the light output rises with the ADP produced.

Another assay concerns the target LRRK2 (G2019S) (Homo sapiens, UniProt Q5S007, G2019S). Put plainly: LRRK2 G2019S enzyme inhibition, ADP-Glo kinase assay. Also on record: purchased SignalChem L10-12GG. The settings on record: ATP 25 μM. The procedure, abridged: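 IC50 derived from luminescent ADP-Glo readout against untreated solvent control, twelve final compound concentrations from 50 μM downward. Reaction: recombinant human LRRK2 G2019S enzyme, 25 μM ATP, substrate, pH 7.4 Tris buffer with MgCl2/BSA/DTT, 25° C. for 2 hours.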

In a further assay the target is T1, human GST-DYRK1A (Homo sapiens, UniProt Q13627).
T1 construct: purified human GST-DYRK1A (full length, Thermo Scientifics) enzyme; purchased Thermo Scientifics
Put plainly: GST-DYRK1A enzyme inhibition, ADP-Glo kinase assay. The settings on record: ATP 10 μM, GST-DYRK1A full length, read-out: DYRK1 IC50. In short, it runs like this: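 Full-length enzyme (10 ng) was incubated with 10 μM ATP and a specific substrate for 1 h at 25 °C in 40 mM Tris-HCl pH 7.4, 20 mM MgCl2, 0.5 mg/mL BSA, 50 μM DTT. Luminescence was read against a solvent control, and IC50 values were derived from 3 data sets.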

The next assay has as its target T2, human GST-CLK1 (Homo sapiens, UniProt P49759).
T2 construct: purified human GST-CLK1 (129-end, SignalChem) enzyme; purchased SignalChem
In words: GST-CLK1 enzyme inhibition, ADP-Glo kinase assay. The settings on record: ATP 10 μM, GST-CLK1 129-end. In short, it runs like this:
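ADP-Glo luminescence read-out, relative to untreated solvent control, gave IC50 (nM) from triplicate data sets. Reactions ran an hour at 25° C with 3 ng GST-CLK1 (residues 129-end), 10 μM ATP and specific substrate in Tris-HCl pH 7.4 buffer with MgCl2, BSA and DTT.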

A value given as a limit tells only on which side of the number the result lay.

LRRK2 (G2019S), sequence (Q5S007 970-2527 G2019S limits assumed): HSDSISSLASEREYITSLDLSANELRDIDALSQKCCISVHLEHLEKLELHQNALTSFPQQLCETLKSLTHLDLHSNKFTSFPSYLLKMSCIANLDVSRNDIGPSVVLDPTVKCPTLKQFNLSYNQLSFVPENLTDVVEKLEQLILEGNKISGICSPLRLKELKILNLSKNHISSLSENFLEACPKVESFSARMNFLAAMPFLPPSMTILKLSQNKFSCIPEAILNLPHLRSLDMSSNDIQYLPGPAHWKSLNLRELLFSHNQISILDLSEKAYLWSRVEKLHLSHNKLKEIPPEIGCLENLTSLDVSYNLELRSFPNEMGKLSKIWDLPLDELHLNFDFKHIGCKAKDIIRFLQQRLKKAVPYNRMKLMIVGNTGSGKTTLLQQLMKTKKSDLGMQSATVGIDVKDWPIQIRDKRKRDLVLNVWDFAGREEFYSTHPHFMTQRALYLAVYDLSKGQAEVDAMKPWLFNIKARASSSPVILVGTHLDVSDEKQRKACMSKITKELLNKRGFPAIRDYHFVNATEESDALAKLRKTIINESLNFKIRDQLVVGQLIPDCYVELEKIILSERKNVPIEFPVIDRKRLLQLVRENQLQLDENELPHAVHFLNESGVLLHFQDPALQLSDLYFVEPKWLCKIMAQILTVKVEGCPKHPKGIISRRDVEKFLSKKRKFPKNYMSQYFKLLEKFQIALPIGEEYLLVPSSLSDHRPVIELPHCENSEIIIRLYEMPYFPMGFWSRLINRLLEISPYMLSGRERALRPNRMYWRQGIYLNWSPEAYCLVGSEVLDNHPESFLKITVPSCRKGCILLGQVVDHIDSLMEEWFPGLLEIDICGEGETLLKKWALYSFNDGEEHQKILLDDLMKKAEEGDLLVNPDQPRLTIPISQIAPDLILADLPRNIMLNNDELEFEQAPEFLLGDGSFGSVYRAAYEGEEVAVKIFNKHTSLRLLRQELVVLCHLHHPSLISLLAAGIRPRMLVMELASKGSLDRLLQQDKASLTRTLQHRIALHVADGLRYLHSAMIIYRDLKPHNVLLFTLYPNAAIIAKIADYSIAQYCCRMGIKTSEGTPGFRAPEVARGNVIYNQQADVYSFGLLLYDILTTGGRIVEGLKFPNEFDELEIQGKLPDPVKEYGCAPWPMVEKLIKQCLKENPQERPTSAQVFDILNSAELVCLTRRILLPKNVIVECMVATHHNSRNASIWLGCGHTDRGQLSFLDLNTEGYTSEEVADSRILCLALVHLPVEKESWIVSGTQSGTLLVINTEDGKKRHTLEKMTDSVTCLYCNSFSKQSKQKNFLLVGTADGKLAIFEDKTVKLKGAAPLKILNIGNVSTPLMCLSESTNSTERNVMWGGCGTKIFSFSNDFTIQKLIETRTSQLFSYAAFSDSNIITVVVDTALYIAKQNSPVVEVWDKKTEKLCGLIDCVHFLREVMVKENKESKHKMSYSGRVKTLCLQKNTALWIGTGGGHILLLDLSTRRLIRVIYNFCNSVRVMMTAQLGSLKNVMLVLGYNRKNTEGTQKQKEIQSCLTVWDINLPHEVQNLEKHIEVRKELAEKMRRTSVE
LRRK2, sequence (Q5S007 970-2527 limits assumed): as the sequence (Q5S007 970-2527 G2019S limits assumed) above, with S1050G counted along it
T2 sequence (P49759 129-484 limits assumed): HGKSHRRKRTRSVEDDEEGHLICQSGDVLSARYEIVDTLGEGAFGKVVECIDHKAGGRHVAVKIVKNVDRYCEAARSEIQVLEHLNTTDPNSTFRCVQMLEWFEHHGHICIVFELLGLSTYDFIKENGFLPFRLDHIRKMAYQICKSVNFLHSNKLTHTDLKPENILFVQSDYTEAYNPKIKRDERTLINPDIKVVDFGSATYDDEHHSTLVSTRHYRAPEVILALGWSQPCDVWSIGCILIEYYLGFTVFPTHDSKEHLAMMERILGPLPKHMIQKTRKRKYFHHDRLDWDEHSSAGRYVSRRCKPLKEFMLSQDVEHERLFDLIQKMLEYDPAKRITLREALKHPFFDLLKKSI

By IC50 is commonly meant the concentration that gives 50% inhibition. `CNc1nc(Nc2ccc(C(=O)N3CCC(N4CCOCC4)CC3)c3c2OCCO3)nc2[nH]cc(C#N)c12` [Example 136, 4-(methylamino)-2-((8-(4-morpholinopiperidine-1-carbonyl)-2,3-dihydrobenzo[b][1,4]dioxin-5-yl)amino)-7H-pyrrolo[2,3-d]pyrimidine-5-carbonitrile]: the IC50 against LRRK2 is under 100 nM; against LRRK2 (G2019S) it was under 100 nM; on human GST-DYRK1A it was 101 to 300 nM; on human GST-CLK1 it was under 100 nM.

Consider `CCNc1nc(Nc2ccc(C(=O)N3CCC(N4CCOCC4)CC3)c3c2OCCO3)nc2[nH]cc(C#N)c12` [Example 137, 4-(ethylamino)-2-((8-(4-morpholinopiperidine-1-carbonyl)-2,3-dihydrobenzo[b][1,4]dioxin-5-yl)amino)-7H-pyrrolo[2,3-d]pyrimidine-5-carbontrile], for which the concentration for half-maximal inhibition (IC50) against LRRK2 is under 100 nM; on LRRK2 (G2019S) it was under 100 nM; at human GST-DYRK1A, 101 to 300 nM; at human GST-CLK1 it was under 100 nM.

Take `N#Cc1c[nH]c2nc(Nc3ccc(C(=O)N4CCC(N5CCOCC5)CC4)c4c3OCCO4)nc(NC3CC3)c12` [Example 141, 4-(cyclopropylamino)-2-((8-(4-morpholinopiperidine-1-carbonyl)-2,3-dihydrobenzo[b][1,4]dioxin-5-yl)amino)-7H-pyrrolo[2,3-d]pyrimidine-5-carbonitrile]: the IC50 at LRRK2 was under 100 nM; on LRRK2 (G2019S), under 100 nM; at human GST-DYRK1A it was 301 to 1000 nM; at human GST-CLK1 it was under 100 nM.

As to `CNc1nc(Nc2ccc(C(=O)N3CCOCC3)c3c2OCCO3)nc2[nH]cc(C(F)(F)F)c12` [Example 155, (8-((4-(methyalmino)-5-(trifluoromethyl)-7H-pyrrolo[2,3-d]pyrimidin-2-yl)amino)-2,3-dihydrobenzo[b][1,4]dioxin-5-yl)(morpholino)methanone 2,2,2-trifluoroacetate], the IC50 at LRRK2, on LRRK2 (G2019S), at human GST-DYRK1A and at human GST-CLK1 was under 100 nM throughout.

As to `CCNc1nc(Nc2ccc(C(=O)N3CCOCC3)c3c2OCCO3)nc2[nH]cc(C(F)(F)F)c12` [Example 156, (8-((4-(ethylamino)-5-(trifluoromethyl)-7H-pyrrolo[2,3-d]pyrimidin-2-yl)amino)-2,3-dihydrobenzo[b][1,4]dioxin-5-yl)(morpholino)methanone 2,2,2-trifluoroacetate], the IC50 is under 100 nM against LRRK2, under 100 nM against LRRK2 (G2019S), 101 to 300 nM on human GST-DYRK1A and under 100 nM on human GST-CLK1.

In the case of `CCNc1nc(Nc2ccc(S(C)(=O)=O)cc2OC)nc2[nH]cc(C(F)(F)F)c12` [Example 159, N^4-ethyl-N^2-(2-methoxy-4-(methylsulfonyl)phenyl)-5-(trifluoromethyl)-7H-pyrrolo[2,3-d]pyrimidine-2,4-diamine], the IC50 on LRRK2 was under 100 nM; against LRRK2 (G2019S), 301 to 1000 nM; at human GST-DYRK1A it was 301 to 1000 nM; against human GST-CLK1, 301 to 1000 nM.

Regarding `CCCNc1nc(Nc2ccc(C(=O)N3CCOCC3)c3c2OCCO3)nc2[nH]cc(C(F)(F)F)c12` [Example 162, morpholino(8-((4-(propylamino)-5-(trifluoromethyl)-7H-pyrrolo[2,3-d]pyrimidin-2-yl)amino)-2,3-dihydrobenzo[b][1,4]dioxin-5-yl)methanone], the IC50 against LRRK2 was under 100 nM; against LRRK2 (G2019S), under 100 nM; on human GST-DYRK1A it was 301 to 1000 nM; on human GST-CLK1 it was 301 to 1000 nM.

Take `CNc1nc(Nc2ccc(S(C)(=O)=O)cc2OC)nc2[nH]cc(C(F)(F)F)c12` [Example 163, N^2-(2-methoxy-4-(methylsulfonyl)phenyl)-N^4-methyl-5-(trifluoromethyl)-7H-pyrrolo[2,3-d]pyrimidine-2,4-diamine]: the IC50 against LRRK2 was under 100 nM; on LRRK2 (G2019S), under 100 nM; at human GST-DYRK1A, 101 to 300 nM; on human GST-CLK1, 301 to 1000 nM.

As to `COc1cc(S(C)(=O)=O)ccc1Nc1nc(NC(C)C)c2c(C(F)(F)F)c[nH]c2n1` [Example 166, N^4-isopropyl-N^2-(2-methoxy-4-(methylsulfonyl)-phenyl)-5-(trifluoromethyl)-7H-pyrrolo[2,3-d]pyrimidine-2,4-diamine], the IC50 on LRRK2 is under 100 nM; on LRRK2 (G2019S), 101 to 300 nM; on human GST-DYRK1A, 301 to 1000 nM; on human GST-CLK1, 301 to 1000 nM.

As for `CC(C)Nc1nc(Nc2ccc(C(=O)N3CCOCC3)c3c2OCCO3)nc2[nH]cc(C(F)(F)F)c12` [Example 167, (8-((4-(isopropylamino)-5-(trifluoromethyl)-7H-pyrrolo[2,3-d]pyrimidin-2-yl)amino)-2,3-dihydrobenzo[b][1,4]dioxin-5-yl)(morpholino)methanone], the IC50 was under 100 nM against LRRK2, under 100 nM against LRRK2 (G2019S), 301 to 1000 nM on human GST-DYRK1A and 301 to 1000 nM at human GST-CLK1.

`COCCNc1nc(Nc2ccc(C(=O)N3CCOCC3)c3c2OCCO3)nc2[nH]cc(C(F)(F)F)c12` [Example 168, (8-((4-((2-methoxyethyl)amino)-5-(trifluoromethyl)-7H-pyrrolo[2,3-d]pyrimidin-2-yl)amino)-2,3-dihydrobenzo[b][1,4]dioxin-5-yl)(morpholino)methanone]: the IC50 against LRRK2, against LRRK2 (G2019S), at human GST-DYRK1A and at human GST-CLK1 was under 100 nM in each case.

`COCCNc1nc(Nc2ccc(S(C)(=O)=O)cc2OC)nc2[nH]cc(C(F)(F)F)c12` [Example 171, N^2-(2-methoxy-4-(methylsulfonyl)phenyl)-N^4-(2-methoxyethyl)-5-(trifluoromethyl)-7H-pyrrolo[2,3-d]pyrimidine-2,4-diamine]: the IC50 against LRRK2 was under 100 nM; against LRRK2 (G2019S) it was under 100 nM; on human GST-DYRK1A, 301 to 1000 nM; at human GST-CLK1, 301 to 1000 nM.

With `CC[C@@H](C)Nc1nc(Nc2ccc(C(=O)N3CCOCC3)c3c2OCCO3)nc2[nH]cc(C(F)(F)F)c12` [Example 174, (R)-(8-((4-(sec-butylamino)-5-(trifluoromethyl)-7H-pyrrolo[2,3-d]pyrimidin-2-yl)amino)-2,3-dihydrobenzo[b][1,4]dioxin-5-y)(morpholino)methanone], the IC50 on LRRK2 is under 100 nM; on LRRK2 (G2019S) it was under 100 nM; on human GST-DYRK1A it was 301 to 1000 nM; against human GST-CLK1, 301 to 1000 nM.

For `COCC(C)(C)Nc1nc(Nc2ccc(S(C)(=O)=O)cc2OC)nc2[nH]cc(C(F)(F)F)c12` [Example 177, N^4-(1-methoxy-2-methylpropan-2-yl)-N^2-(2-methoxy-4-(methylsulfonyl)phenyl)-5-(trifluoromethyl)-7H-pyrrolo[2,3-d]pyrimidine-2,4-diamine], the IC50 at LRRK2, at LRRK2 (G2019S), on human GST-DYRK1A and at human GST-CLK1 was 301 to 1000 nM throughout.

With `COCC(C)(C)Nc1nc(Nc2ccc(C(=O)N3CCOCC3)c3c2OCCO3)nc2[nH]cc(C(F)(F)F)c12` [Example 178, (8-((4-((1-methoxy-2-methylpropan-2-yl)amino)-5-(trifluoromethyl)-7H-pyrrolo[2,3-d]pyrimidin-2-yl)amino)-2,3-dihydrobenzo[b][1,4]dioxin-5-yl)(morpholino)methanone], the IC50 on LRRK2 was under 100 nM; at LRRK2 (G2019S) it was under 100 nM; at human GST-DYRK1A, 301 to 1000 nM; on human GST-CLK1, 301 to 1000 nM.

The record behind these values is patent US20230066011A1, “PYRROLOPYRIMIDINE DERIVATIVE, AND PHARMACEUTICAL COMPOSITION FOR PREVENTING OR TREATING PROTEIN KINASE-RELATED DISEASE COMPRISING SAME AS ACTIVE INGREDIENT” (VORONOI CO., LTD., priority 2019, published 2023).
